Consider seven cell lines from the supplement of paper PMC10307832.

Common to all, as to assay: relative viability (nuclei count vs DMSO), 5 days (fraction); higher = more cells survive
Compound in the assay “AZD1208 + Foretinib”: N[C@@H]1CCCN(c2c(/C=C3\SC(=O)NC3=O)cccc2-c2ccccc2)C1 [AZD1208] + COc1cc2c(Oc3ccc(NC(=O)C4(C(=O)Nc5ccc(F)cc5)CC4)cc3F)ccnc2cc1OCCCN1CCOCC1 [Foretinib] (partner 0.25 µM)
An outline of the steps:
(§1)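 A single step with final 0.05% Triton X-100, 1% formaldehyde and 1 ug/ml Hoechst fixed the cells and stained nuclei 5 days after treatment. Lung cancer cell lines in 1536-well plates had been treated by pin tool the day after seeding with one drug alone or a fixed anchor-drug dose plus five library-drug doses (not always all listed) in √10 steps, and nuclei were counted on 4× images. Relative viability is the ratio of nuclei in treated wells to nuclei in vehicle wells, taken as the median of duplicate plates.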

Compound in the assay “AZD1208 + Crizotinib”: N[C@@H]1CCCN(c2c(/C=C3\SC(=O)NC3=O)cccc2-c2ccccc2)C1 [AZD1208] + C[C@@H](Oc1cc(-c2cnn(C3CCNCC3)c2)cnc1N)c1c(Cl)ccc(F)c1Cl [Crizotinib] (partner 1 µM)
An outline of the steps:
as §1

Compound in the assay “XMD14-99 + AZD7762”: CN1CCN(CC1)C2=CC(=C(C=C2)NC3=NC(=C(S3)C(=O)C4=C(C=CC=C4Cl)Cl)N)OC [XMD14-99] + NC(=O)Nc1cc(-c2cccc(F)c2)sc1C(=O)N[C@H]1CCCNC1 [AZD7762] (partner 0.2 µM)
The method in brief: as §1

Compound in the assay “XMD14-99 + Vorinostat”: CN1CCN(CC1)C2=CC(=C(C=C2)NC3=NC(=C(S3)C(=O)C4=C(C=CC=C4Cl)Cl)N)OC [XMD14-99] + O=C(CCCCCCC(=O)Nc1ccccc1)NO [Vorinostat] (partner 1 µM)
The method in brief: as §1

Consider NCI-H1944, for which the relative viability in the assay with AZD1208 + Foretinib (first compound 0.08 µM) was 0.829; with AZD1208 + Foretinib (first compound 0.253 µM) it was 0.838; in the assay with AZD1208 + Foretinib (first compound 0.8 µM) it was 0.774; in the assay with AZD1208 + Foretinib (first compound 2.53 µM), 0.688; with AZD1208 + Foretinib (first compound 8 µM) it was 0.571; with AZD1208 + Crizotinib (first compound 0.08 µM), 1.14. For the same cell line, the relative viability was determined as 1.16 with AZD1208 + Crizotinib (first compound 0.253 µM); 0.985 in the assay with AZD1208 + Crizotinib (first compound 0.8 µM); 1.01 with AZD1208 + Crizotinib (first compound 2.53 µM); 0.827 in the assay with AZD1208 + Crizotinib (first compound 8 µM); 0.501 in the assay with XMD14-99 + AZD7762 (first compound 0.08 µM); 0.539 with XMD14-99 + AZD7762 (first compound 0.8 µM). The relative viability with XMD14-99 + AZD7762 (first compound 2.53 µM) was determined as 0.436; in the assay with XMD14-99 + AZD7762 (first compound 8 µM), 0.328; in the assay with XMD14-99 + Vorinostat (first compound 0.08 µM) it was 0.547; with XMD14-99 + Vorinostat (first compound 0.8 µM), 0.586; with XMD14-99 + Vorinostat (first compound 2.53 µM) it was 0.486; with XMD14-99 + Vorinostat (first compound 8 µM), 0.449.
As to NCI-H1975, the relative viability with AZD1208 + Foretinib (first compound 0.08 µM) is 1.06; with AZD1208 + Foretinib (first compound 0.253 µM) it was 0.959; in the assay with AZD1208 + Foretinib (first compound 0.8 µM) it was 0.855; in the assay with AZD1208 + Foretinib (first compound 2.53 µM) it was 0.853; with AZD1208 + Foretinib (first compound 8 µM) it was 0.972; in the assay with AZD1208 + Crizotinib (first compound 0.08 µM), 0.925. The relative viability with AZD1208 + Crizotinib (first compound 0.253 µM) worked out at 1.03; with AZD1208 + Crizotinib (first compound 0.8 µM), 0.991; with AZD1208 + Crizotinib (first compound 2.53 µM) it was 0.933; with AZD1208 + Crizotinib (first compound 8 µM) it was 0.915; with XMD14-99 + AZD7762 (first compound 0.08 µM) it was 0.743; with XMD14-99 + AZD7762 (first compound 0.8 µM) it was 0.745. Further, the relative viability is 0.717 in the assay with XMD14-99 + AZD7762 (first compound 2.53 µM); 0.569 with XMD14-99 + AZD7762 (first compound 8 µM); 0.675 in the assay with XMD14-99 + Vorinostat (first compound 0.08 µM); 0.673 with XMD14-99 + Vorinostat (first compound 0.8 µM); 0.612 with XMD14-99 + Vorinostat (first compound 2.53 µM); 0.475 with XMD14-99 + Vorinostat (first compound 8 µM).
NCI-H1993: the relative viability with AZD1208 + Foretinib (first compound 0.08 µM) worked out at 0.763; in the assay with AZD1208 + Foretinib (first compound 0.253 µM), 0.664; with AZD1208 + Foretinib (first compound 0.8 µM) it was 0.581; with AZD1208 + Foretinib (first compound 2.53 µM), 0.71; in the assay with AZD1208 + Foretinib (first compound 8 µM) it was 0.713; in the assay with AZD1208 + Crizotinib (first compound 0.253 µM), 0.678. The relative viability came out at 0.759 with AZD1208 + Crizotinib (first compound 0.8 µM); 0.735 in the assay with AZD1208 + Crizotinib (first compound 2.53 µM); 0.728 with AZD1208 + Crizotinib (first compound 8 µM); 0.879 in the assay with XMD14-99 + AZD7762 (first compound 0.08 µM); 0.702 with XMD14-99 + AZD7762 (first compound 0.8 µM); 0.82 in the assay with XMD14-99 + AZD7762 (first compound 2.53 µM). The relative viability with XMD14-99 + AZD7762 (first compound 8 µM) stood at 0.593; with XMD14-99 + Vorinostat (first compound 0.08 µM) it was 0.595; in the assay with XMD14-99 + Vorinostat (first compound 0.8 µM), 0.889; in the assay with XMD14-99 + Vorinostat (first compound 2.53 µM), 0.793; with XMD14-99 + Vorinostat (first compound 8 µM), 0.714.
Take NCI-H2085: the relative viability was 0.965 in the assay with AZD1208 + Foretinib (first compound 0.08 µM); 0.97 in the assay with AZD1208 + Foretinib (first compound 0.253 µM); 1.23 with AZD1208 + Foretinib (first compound 0.8 µM); 0.886 with AZD1208 + Foretinib (first compound 2.53 µM); 0.748 with AZD1208 + Foretinib (first compound 8 µM); 0.703 with AZD1208 + Crizotinib (first compound 0.08 µM). Also, the relative viability with AZD1208 + Crizotinib (first compound 0.253 µM) was 0.906; with AZD1208 + Crizotinib (first compound 0.8 µM), 0.951; in the assay with AZD1208 + Crizotinib (first compound 2.53 µM), 0.865; in the assay with AZD1208 + Crizotinib (first compound 8 µM), 0.882; with XMD14-99 + AZD7762 (first compound 0.08 µM), 0.95; with XMD14-99 + AZD7762 (first compound 0.8 µM), 0.914. For the same cell line, the relative viability with XMD14-99 + AZD7762 (first compound 2.53 µM) came to 0.881; in the assay with XMD14-99 + AZD7762 (first compound 8 µM), 0.72; in the assay with XMD14-99 + Vorinostat (first compound 0.08 µM), 0.768; with XMD14-99 + Vorinostat (first compound 0.8 µM), 0.788; with XMD14-99 + Vorinostat (first compound 2.53 µM), 0.768; with XMD14-99 + Vorinostat (first compound 8 µM), 0.613.
As for NCI-H2087, the relative viability with AZD1208 + Foretinib (first compound 0.08 µM) is 1.17; with AZD1208 + Foretinib (first compound 0.253 µM), 1.26; with AZD1208 + Foretinib (first compound 0.8 µM), 0.89; in the assay with AZD1208 + Foretinib (first compound 2.53 µM), 0.977; with AZD1208 + Foretinib (first compound 8 µM), 0.988; in the assay with AZD1208 + Crizotinib (first compound 0.08 µM) it was 1.06. Besides, the relative viability with AZD1208 + Crizotinib (first compound 0.253 µM) came to 1.13; with AZD1208 + Crizotinib (first compound 0.8 µM), 0.812; with AZD1208 + Crizotinib (first compound 2.53 µM) it was 0.993; with AZD1208 + Crizotinib (first compound 8 µM) it was 0.979; with XMD14-99 + AZD7762 (first compound 0.08 µM) it was 1.26; with XMD14-99 + AZD7762 (first compound 0.8 µM) it was 1.14. Further, the relative viability with XMD14-99 + AZD7762 (first compound 2.53 µM) is 1.04; with XMD14-99 + AZD7762 (first compound 8 µM), 0.764; with XMD14-99 + Vorinostat (first compound 0.08 µM), 0.617; with XMD14-99 + Vorinostat (first compound 0.8 µM) it was 0.668; with XMD14-99 + Vorinostat (first compound 2.53 µM) it was 0.864; in the assay with XMD14-99 + Vorinostat (first compound 8 µM), 0.449.
On to NCI-H2126, for which the relative viability worked out at 1.19 in the assay with AZD1208 + Foretinib (first compound 0.08 µM); 0.834 with AZD1208 + Foretinib (first compound 0.253 µM); 0.766 in the assay with AZD1208 + Foretinib (first compound 0.8 µM); 1.09 in the assay with AZD1208 + Foretinib (first compound 2.53 µM); 0.931 with AZD1208 + Foretinib (first compound 8 µM); 0.993 with AZD1208 + Crizotinib (first compound 0.08 µM). In addition, the relative viability with AZD1208 + Crizotinib (first compound 0.253 µM) was 1.04; with AZD1208 + Crizotinib (first compound 0.8 µM), 0.991; with AZD1208 + Crizotinib (first compound 2.53 µM), 1.01; with AZD1208 + Crizotinib (first compound 8 µM), 0.974; in the assay with XMD14-99 + AZD7762 (first compound 0.08 µM), 0.979; with XMD14-99 + AZD7762 (first compound 0.8 µM), 0.984. Besides, the relative viability in the assay with XMD14-99 + AZD7762 (first compound 2.53 µM) came to 1.05; in the assay with XMD14-99 + AZD7762 (first compound 8 µM), 0.942; with XMD14-99 + Vorinostat (first compound 0.08 µM) it was 0.694; with XMD14-99 + Vorinostat (first compound 0.8 µM), 0.806; with XMD14-99 + Vorinostat (first compound 2.53 µM), 0.694; with XMD14-99 + Vorinostat (first compound 8 µM), 0.579.
For NCI-H2170, the relative viability in the assay with AZD1208 + Foretinib (first compound 0.08 µM) was determined as 1.07; with AZD1208 + Foretinib (first compound 0.253 µM), 1.07; with AZD1208 + Foretinib (first compound 0.8 µM), 1.08; with AZD1208 + Foretinib (first compound 2.53 µM) it was 1.03; in the assay with AZD1208 + Foretinib (first compound 8 µM), 0.878; with AZD1208 + Crizotinib (first compound 0.08 µM) it was 1.18. For the same cell line, the relative viability stood at 1.2 with AZD1208 + Crizotinib (first compound 0.253 µM); 1.01 with AZD1208 + Crizotinib (first compound 0.8 µM); 1.12 with AZD1208 + Crizotinib (first compound 2.53 µM); 0.836 with AZD1208 + Crizotinib (first compound 8 µM); 0.787 in the assay with XMD14-99 + AZD7762 (first compound 0.08 µM); 0.928 with XMD14-99 + AZD7762 (first compound 0.8 µM). Besides, the relative viability came to 0.875 in the assay with XMD14-99 + AZD7762 (first compound 2.53 µM); 0.702 in the assay with XMD14-99 + AZD7762 (first compound 8 µM); 0.784 with XMD14-99 + Vorinostat (first compound 0.08 µM); 0.832 in the assay with XMD14-99 + Vorinostat (first compound 0.8 µM); 0.741 with XMD14-99 + Vorinostat (first compound 2.53 µM); 0.609 with XMD14-99 + Vorinostat (first compound 8 µM).
